A short description of data set [1]: Metabolic stability assessment in dog liver microsomes. In kind it is in vitro ADME. The settings on record: beagle, pH 7.4, DLMs, CYP incubation system, toddalolactone 20 μM, 0-90 min, read-out: half-life value (T1/2). Here is the method: (§1) The CYP reaction system (200 μL) consisted of 0.1 M potassium phosphate buffer (pH 7.4), an NADPH-generating system (1 mM NADPH, 10 mM G-6-P, 1 unit/mL G-6-PD, 4 mM MgCl2), and liver microsomes or recombinant human microsomes (supersomes). Each of the in vitro enzymatic assays using liver microsomes was linear with respect to incubation time and amount of protein. After a pre-incubation at 37 °C for 3 min, the reactions were initiated by adding NADP^+. After incubating for 60 min, the reactions were quenched by adding 200 μL of ice-cold acetonitrile. Samples were centrifuged at 18,000 g for 15 min at 4 °C and 10 μL of supernatant was analyzed using an HPLC system. […]
(§2) In the UGT reaction system, liver microsomes were incubated in 200 μL of the reaction system containing 4 mM UDPGA, 5 mM MgCl2, 20 µg/mL alamethicin, and 50 mM Tris-HCl buffer (pH 7.4). […] After centrifugation at 18,000 g for 15 min, 10 μL of the supernatant was analyzed by HPLC.
(§3) Toddalolactone (20 μM) was incubated with different liver microsomes, including HLMs, DLMs, PLMs, MLMs, RAMs, RLMs or MIMs in oxidative metabolism and glucuronidation reaction systems. […] The mixtures were centrifuged at 18,000 g for 15 min at 4 °C and then 10 μL of the supernatant was analyzed by HPLC. […]
(§4) The peak areas of toddalolactone and its metabolites were detected using a HPLC system (Shimadzu, Kyoto, Japan). […]

Data set [2] is described as follows: Metabolic stability assessment in rabbit liver microsomes. It counts as in vitro ADME. The settings on record: pH 7.4, RAMs, toddalolactone 20 μM, 0-90 min. The procedure: as §1, §2, §3, §4
Data set [3] is described as follows: Metabolic stability assessment in rat liver microsomes. The settings on record: pH 7.4, RLMs, toddalolactone 20 μM, 0-90 min. In kind it is in vitro ADME. The procedure: as §1, §2, §3, §4
The test system of another data set is RLMs. Nature of the data set: Prediction of in vivo hepatic clearance in rats from RLM kinetics. In kind it is in vitro ADME, rat. The procedure: The in vivo hepatic clearances in oxidative metabolism and glucuronidation of toddalolactone were calculated using Equations (4)–(6) (Li et al. [2008]): (4) CLint in vitro=∑i=1nVmax(Mi)/Km(Mi) (5) CLint in vivo=CLint in vitro⋅SF (6) CLH=QH⋅fu⋅CLint in vivo/QH+fu⋅CLint in vivo where SF is the milligrams of microsomal protein per gram of liver multiplied by the grams of liver weight; CLH is hepatic clearance; fu is the unbound fraction in the blood (the value of fu was set to 1 due to the absence of available data for toddalolactone); QH is the blood flow in the liver; and Mi is the metabolite of toddalolacone. The physiological parameters to calculate intrinsic clearance were as follows. The liver weight of dogs, rats and humans were 32, 40 and 25.7 g/kg body weight, respectively; the content of microsomal protein was 77.9, 44.8 and 48.8 mg/g of liver; and the blood flow in the liver was 30.9, 55.2 and 20.7 mL/(min ⋅ kg), respectively (Naritomi et al. [2001]).

In another data set the target is T1, CYP1A1 (Homo sapiens, UniProt P04798).
T1 sequence (P04798 1-512): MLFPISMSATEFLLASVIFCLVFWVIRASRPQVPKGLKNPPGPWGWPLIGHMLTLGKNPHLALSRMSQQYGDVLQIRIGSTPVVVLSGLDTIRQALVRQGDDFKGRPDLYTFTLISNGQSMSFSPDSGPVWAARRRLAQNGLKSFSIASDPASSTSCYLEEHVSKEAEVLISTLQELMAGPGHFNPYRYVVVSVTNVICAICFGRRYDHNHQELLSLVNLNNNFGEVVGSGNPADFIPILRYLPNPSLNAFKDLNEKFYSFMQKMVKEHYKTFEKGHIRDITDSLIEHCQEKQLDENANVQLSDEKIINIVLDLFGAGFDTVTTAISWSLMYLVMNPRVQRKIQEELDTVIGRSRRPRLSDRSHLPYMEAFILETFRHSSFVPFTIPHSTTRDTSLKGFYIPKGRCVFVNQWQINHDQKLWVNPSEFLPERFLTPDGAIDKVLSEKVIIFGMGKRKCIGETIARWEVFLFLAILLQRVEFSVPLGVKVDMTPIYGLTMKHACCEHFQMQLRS
Nature of the data set: Reaction phenotyping with recombinant human CYP1A1. The settings on record: CYP1A1 15 nM, 37 °C, 60 min; P4 main metabolite. Also noted: purchased Corning Life Sciences (Corning, MA). In kind it is in vitro ADME. Here is the method:
The CYP reaction system (200 μL) consisted of 0.1 M potassium phosphate buffer (pH 7.4), an NADPH-generating system (1 mM NADPH, 10 mM G-6-P, 1 unit/mL G-6-PD, 4 mM MgCl2), and liver microsomes or recombinant human microsomes (supersomes). Each of the in vitro enzymatic assays using liver microsomes was linear with respect to incubation time and amount of protein. After a pre-incubation at 37 °C for 3 min, the reactions were initiated by adding NADP^+. After incubating for 60 min, the reactions were quenched by adding 200 μL of ice-cold acetonitrile. Samples were centrifuged at 18,000 g for 15 min at 4 °C and 10 μL of supernatant was analyzed using an HPLC system. NADPH or CYP enzyme sources were not used in the control group to ensure that the metabolic reactions were CYP- and NADPH-dependent. All incubation assays were completed in triplicate. The data are presented as mean ± standard deviation (SD).
Thirteen cDNA-expressed human CYP isoforms (CYP1A1, CYP1A2, CYP2A6, CYP2B6, CYP2C8, CYP3A4, CYP2C19, CYP3A5, CYP1B1, CYP2C9, CYP2D6, CYP2E1 and CYP4F2) were used to identify the isoform(s) involved in the biotransformation of toddalolactone. Toddalolactone (10 μM) was incubated with each recombinant CYP (15 nM) for 60 min at 37 °C and metabolites were identified by HPLC.

Setting [4] is: CYP incubation system, read-out: half-life value (T1/2).
[5] abbreviates: UGT incubation system, read-out: T1/2 value.

Results on one compound are retold here after publication PMC9367672, “In vitro differences in toddalolactone metabolism in various species and its effect on cytochrome P450 expression” (Pharmaceutical Biology, 2022).

For the compound `COc1cc2oc(=O)ccc2c(OC)c1C[C@@H](O)C(C)(C)O` [toddalolactone], the half-life at 20 μM in data set [1] is 8.23 ± 0.7 h; in data set [2] (setting [4]), 6.78 ± 0.517 h; in data set [2] (setting [5]), 2.07 ± 0.138 h; in data set [3] (setting [4]) it was 6.37 ± 0.283 h; in data set [3] (setting [5]), 2.15 ± 0.197 h. Moreover, in the data set on RLMs (RLMs), the “CLH versus hepatic blood flow (QH)” value is reported as 1.52%. Moreover, the “clearance class according to predicted CLH” value in the data set with RLMs (rats) is recorded as “low-clearance (low-clearance drugs (<30% liver blood flow))”. The “in vivo hepatic clearance (CLH)” value in the data set on RLMs (rats, predicted from kinetic parameters of P1–P6, fu set to 1) is 1.12 mL/(min/kg body weight). Also, on CYP1A1, the “catalysis of toddalolactone metabolism by rhCYP isoform” value is listed as “predominantly catalyzed”.
